From paper PMC9274755, “KDM4 inhibitor SD49-7 attenuates leukemia stem cell via KDM4A/MDM2/p21^CIP1 axis” (Theranostics, 2022)

Assays:
KDM4A = target: T1, KDM4A (Homo sapiens, UniProt O75164); assay: SPR (Biacore T200), protein immobilized on CM5 chip; format: binding
T1 sequence (O75164 2-1064): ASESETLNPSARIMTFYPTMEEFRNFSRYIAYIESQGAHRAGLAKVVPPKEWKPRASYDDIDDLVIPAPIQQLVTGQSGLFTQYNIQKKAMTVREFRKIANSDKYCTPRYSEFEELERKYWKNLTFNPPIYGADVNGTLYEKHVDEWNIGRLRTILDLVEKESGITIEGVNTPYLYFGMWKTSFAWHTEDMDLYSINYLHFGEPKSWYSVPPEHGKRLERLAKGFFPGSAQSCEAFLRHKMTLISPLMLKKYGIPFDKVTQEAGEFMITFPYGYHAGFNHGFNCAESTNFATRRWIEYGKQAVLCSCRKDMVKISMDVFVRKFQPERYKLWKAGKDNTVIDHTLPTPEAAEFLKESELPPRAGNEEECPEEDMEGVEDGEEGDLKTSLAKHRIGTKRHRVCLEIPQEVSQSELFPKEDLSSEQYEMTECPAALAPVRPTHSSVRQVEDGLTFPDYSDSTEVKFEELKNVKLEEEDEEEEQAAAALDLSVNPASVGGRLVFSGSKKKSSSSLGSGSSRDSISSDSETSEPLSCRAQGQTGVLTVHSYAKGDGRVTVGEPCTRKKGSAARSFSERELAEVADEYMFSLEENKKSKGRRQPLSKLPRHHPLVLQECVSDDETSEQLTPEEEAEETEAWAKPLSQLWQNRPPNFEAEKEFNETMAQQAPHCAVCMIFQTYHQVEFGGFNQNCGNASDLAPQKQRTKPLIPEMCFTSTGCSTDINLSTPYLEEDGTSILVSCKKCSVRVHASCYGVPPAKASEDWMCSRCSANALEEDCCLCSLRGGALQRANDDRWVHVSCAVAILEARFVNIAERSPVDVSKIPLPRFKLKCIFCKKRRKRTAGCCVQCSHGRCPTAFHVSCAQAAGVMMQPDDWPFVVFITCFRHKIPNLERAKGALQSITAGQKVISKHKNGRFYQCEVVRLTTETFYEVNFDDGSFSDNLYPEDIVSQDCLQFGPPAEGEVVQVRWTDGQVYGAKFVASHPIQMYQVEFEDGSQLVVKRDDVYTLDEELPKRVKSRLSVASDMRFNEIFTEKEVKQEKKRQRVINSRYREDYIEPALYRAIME

KDM4C = target: T2, KDM4C (Homo sapiens, UniProt Q9H3R0); assay: as above; format: binding
T2 sequence (Q9H3R0 1-1056): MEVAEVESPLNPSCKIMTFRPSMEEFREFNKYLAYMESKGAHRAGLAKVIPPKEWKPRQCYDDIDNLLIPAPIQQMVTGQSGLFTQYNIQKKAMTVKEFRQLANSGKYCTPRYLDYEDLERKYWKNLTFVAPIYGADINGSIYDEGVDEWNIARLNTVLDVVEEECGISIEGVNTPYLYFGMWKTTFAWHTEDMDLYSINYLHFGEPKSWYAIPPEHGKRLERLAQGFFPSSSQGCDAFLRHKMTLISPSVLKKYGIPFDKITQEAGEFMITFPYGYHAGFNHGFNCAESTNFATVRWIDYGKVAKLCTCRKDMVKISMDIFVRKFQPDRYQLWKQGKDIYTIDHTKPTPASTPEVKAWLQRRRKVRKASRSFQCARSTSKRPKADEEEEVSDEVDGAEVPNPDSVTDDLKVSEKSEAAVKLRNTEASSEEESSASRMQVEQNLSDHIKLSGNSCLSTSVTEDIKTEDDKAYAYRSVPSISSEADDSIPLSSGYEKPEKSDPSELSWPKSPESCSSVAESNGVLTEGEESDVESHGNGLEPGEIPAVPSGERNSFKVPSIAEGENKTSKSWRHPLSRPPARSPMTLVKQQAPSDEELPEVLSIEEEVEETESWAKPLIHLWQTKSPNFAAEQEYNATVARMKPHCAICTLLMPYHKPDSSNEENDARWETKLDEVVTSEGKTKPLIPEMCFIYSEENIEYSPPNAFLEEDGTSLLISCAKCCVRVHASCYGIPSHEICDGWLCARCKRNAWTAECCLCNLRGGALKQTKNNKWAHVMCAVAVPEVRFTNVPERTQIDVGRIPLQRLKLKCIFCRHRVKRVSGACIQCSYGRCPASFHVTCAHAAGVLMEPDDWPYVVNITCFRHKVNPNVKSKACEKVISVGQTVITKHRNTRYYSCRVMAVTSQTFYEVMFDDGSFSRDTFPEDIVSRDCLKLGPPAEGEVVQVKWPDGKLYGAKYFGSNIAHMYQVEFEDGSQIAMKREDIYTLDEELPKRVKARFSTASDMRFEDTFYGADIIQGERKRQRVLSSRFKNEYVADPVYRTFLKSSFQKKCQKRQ

Compound | Kd (KDM4A) [nM] | Kd (KDM4C) [nM]
O=C(N/N=C/c1c(O)ccc2ccccc12)c1ccccc1O [SD49-7] | 988 | 1060
CC(C)C(=O)NC(c1ccco1)c1ccc2cccnc2c1O (stereo not shown) [SD70] | 18000 | 2590
